This note sets out measurements from patent US9057106B2, “Method of determination of diagnosis and prognosis in patients with B-cell chronic lymphocytic leukemia and oligonucleotides for use in this method” (MASARYKOVA UNIVERZITA, priority 2009, dated 2015).

Entries after “also recorded” stand apart in the source; their conditions may differ.

In this assay the test system is CLL cells. The assay can be described thus: Transwell migration assay of CLL cells in chemokine gradient. The format is cell-based, human. From the text: 2006 Nov. 1; 108(9):3143-51; Richardson S J, Matthews C, Catherwood M A, Alexander H D, Carey B S, Farrugia J, Gardiner A, Mould S, Oscier D, Copplestone J A, Prentice A G: ZAP-70 expression is associated with enhanced ability to respond to migratory and survival signals in B-cell chronic lymphocytic leukemia (CLL). Blood. 2006 May 1; 107(9):3584-92). […] CK1ε is the key component of the Wnt/PCP pathway and its quantity in the patients suffering from CLL is increased. As we show in FIG. 5B, the inhibition of CK1ε blocks the effects of Wnt5a on cell migration in the chemokine gradient. […] The extent of the migration of CLL cells in chemokine gradient after Wnt5a stimulation may be determined by the following procedure and used for the determination of the migration capacity of CLL cells that correlates closely with the infiltration of lymphatic organs and the agressiveness of the disease (Till K J, Lin K, Zuzel M., Cawley J C. The chemokine receptor CCR7 and a4 integrin are important for migration of chronic lymphocytic leukemia cells into lymph nodes. Blood. 2002 99: 2977-2984).
CLL cells were isolated by the identical procedure as in Example 6. After isolation the cells were transferred to tissue culture and subjected to Transwell assay. 96 well plates were used for the experiments (Corning, HTS Transwell®-96 Permeable Support with 5.0 μm Pore Polycarbonate Membrane). These plates consist of a bottom part including the wells and a top part that includes the inserts, the bottom of which is formed by the membrane of a defined size of pores. Each sample was measured in triplicate. The wells in the bottom part of the plate always included 0.235 ml of the medium (RPMI 1640, 0.1% FBS, 1% Penicillin Streptomycin, 1% L-glutamine) and further the required concentration of the chemokine or solvent (0.1% BSA in PBS). […] After the cultivation the inserts were removed from the transwell plate, trypsin was added to each well (100 μl) and after 5 minutes of its activity the number of the cells that migrated through the membrane were counted in each well. […]

Regarding `NC(=O)c1ccc(-c2nc(-c3ccc4c(c3)OCCO4)c(-c3ccccn3)[nH]2)cc1` [D4476, reference compound], the “effect of CK1 inhibition on Wnt5a-induced migration of CLL cells in the chemokine gradient” value (CK1 inhibitor D4476 100 uM, with Wnt5a and chemokine) is recorded as “blocks migration”. Regarding CXCL12: chemokine CXCL12, the “migration of CLL cells” value (substance itself (alone), 20 hours, recombinant Wnt5a 200 ng/ml) is “influences positively the migration of CLL cells”.

B1: Wnt5a: recombinant Wnt5a, secreted ligand of the Wnt/PCP pathway (protein, UniProt P41221 62-380, looked up)
Protein Wnt-5a: IIGAQPLCSQLAGLSQGQKKLCHLYQDHMQYIGEGAKTGIKECQYQFRHRRWNCSTVDNTSVFGRVMQIGSRETAFTYAVSAAGVVNAMSRACREGELSTCGCSRAARPKDLPRDWLWGGCGDNIDYGYRFAKEFVDARERERIHAKGSYESARILMNLHNNEAGRRTVYNLADVACKCHGVSGSCSLKTCWLQLADFRKVGDALKEKYDSAAAMRLNSRGKLVQVNSRFNSPTTQDLVYIDPSPDYCVRNESTGSLGTQGRLCNKTSEGMDGCELMCCGRGYDQFKTVQTERCHCKFHWCCYVKCKKCTEIVDQFVCK
With B1, the “migration of CLL cells in the presence of the chemokine CXCL12” value (combination of CXCL12 and recombinant Wnt5a (200 ng/ml), 20 hours) is reported as “positively affect the migration of CLL cells; also recorded: significantly increased the migration of CLL”.
